“Also recorded” adds a separate entry of the source.
Legend:
[1] = test system: abdominal organs and peritoneum; assay: Survival and necropsy of healthy rats after peritoneal washing (groups A, B); details: group A, collagenase 37 U/mL; 1 died after surgery due to evisceration
Description: During this phase, a series of survival experiments were established with various work groups and subgroups to learn about the co-adjuvant or enhancing role of collagenase in the treatment of peritoneal tumors with chemotherapeutic agents such as mitomycin C:
Each group initially consisted of 6 rats (2×3). In the initial design, 3 animals were sacrificed after 15 days and the rest were left until the conditions of the animals required them to be sacrificed (subcutaneous tumor growth >0.5 cm in diameter) or a maximum of 2 months.

[2] = test system: mesothelial layer covering the intestinal tract; assay: First tests of peritoneal washing with collagenase on rat (Wistar); format: in vivo; details: optimum concentration and time (35 U/mL, 10-15 minutes)
Procedure: For the purpose of fine-tuning the volume of the cavity and the optimum treatment time so that no organ in the cavity will sustain any damage, twenty 6-week old Wistar rats weighing 250 grams were used, and they were tested at different concentrations of 35 U/mL of collagenase and 37 U/mL of collagenase for clinical use. Up until now, all the studies had been performed with collagenase for experimental use, nevertheless, the choice was made to use collagenase authorized for clinical use from now on, taking into account the potency equivalence calculations requested from the manufacturer. A study was then conducted using different times of treatment with collagenase from 2 minutes to 30 minutes (30, 20, 15, 10, 5, and 2) with n=2 in the 4 intermediate times.

peritoneal tissues = assay: Safety, histology and biochemistry in the adhesion model
Procedure: The concentration of collagenase used was 0.05% in PBS, with an application time of 20 min, in a volume of 20 ml, and at a temperature of 37° C. in a thermal blanket and with prior tempering of the drug.
Blood was drawn from all the rats by intracardiac puncture for biochemistry and cytokines.

[3] = test system: peritoneal adhesions (polypropylene mesh); assay: Peritoneal adhesion model group 2 (4 large meshes): adhesion tear test; format: in vivo, rat; details: group 2, blind study, 0.05%; PBS control 325.76
Procedure: About one month later, intervention is performed on 6 additional 6-week old Wistar rats belonging to a second group (Group II). After inhalation anesthesia with Forane, the animal being shaved, and aseptic measures being implemented, laparotomy is performed with the implantation of 4 polypropylene meshes in the abdominal cavity, 2 on each side of the midline. Prior to implantation, the mesh is wetted with pss.
Secondly, experiments were performed on the rats belonging to group 2. The rats in this group were operated on, divided into two groups with 3 rats each, where a first group received 0.05% collagenase and the other placebo (PBS). After that they were subjected to an adhesion tear test, measuring the maximum pressure and the curve at which the adhesion tore. To that end, an adhesion tear measurement system was used which consisted of a high-precision digital pressure gauge that measured the pressure of a closed and rigid system with three outlets. One was a manual pressure pump, the other one was a piston with linear mobility to which clamps for pulling are fitted and which takes pressure away from the pressure gauge. The pressure needed to cause the tear of the adhesions generated in the collagenase group vs. control group was measured with this system.

[4] = test system: peritoneal carcinomatosis (DHD cells); assay: Phase I fine-tuning of collagenase peritoneal washing on rats with peritoneal carcinomatosis
Procedure: For the development of the “in vivo” model, carcinomatosis was caused in 6 BDIX rats, treatment was proposed after 4 weeks. The treatment consisted of using different concentrations (370 U/mL, 2×148 U/mL, 74 U/mL, 37 U/mL, 0) of collagenase by means of peritoneal washing and it was performed in an open system by means of using a perfusion pump on 3 animals and without using any perfusion pump on 3 other animals (FIG. 3). […] The method for peritoneal washing consisted of, after giving the animals inhalation anesthesia, exposing the abdominal cavity with a longitudinal incision and filling the peritoneal cavity with collagenase diluted to the different concentrations mentioned above. Continuous washing of the peritoneum (only with Ringer's lactate) was then performed; the animals were chosen randomly in each case and treatment lasted for 10 minutes in all the animals.
Washed tissue samples as well as organs were collected for histological studies in all cases (FIG. 4).

mutated KRAS oncogene = assay: Digital PCR of KRAS in plasma; format: in vivo, rat; details: plasma
Procedure: (§1) The procedure was performed 2 times in the TCQ group, the first time with collagenase and after 2 minutes peritoneal washing with mitomycin C at the different concentrations to be tested was repeated. […] Blood was also collected from all the animals before sacrificing them, the blood was processed within the hour following its extraction to obtain plasma and to analyze, on one hand, the existence of the mutated KRAS oncogene (mutation in codon 12 of exon 1 expressed by DHD cells), and on the other hand the existence of collagenase traces or residues in blood after the peritoneal washes. A digital PCR was used for the KRAS oncogene localization study. For the collagenase trace study, the anonymized samples were sent to Lyposmol laboratories for the performance of specific anti-MMP-1 and anti-MMP-2 ELISAS.
To analyze the presence of mutated KRAS in the blood of the different groups by means of digital PCR, DNA was extracted from at least 2 ml of plasma/group by means of the QlAamp Circulating Nucleic Acid kit according to the manufacturer's data and the results were those listed in Table 4.

cytokines and chemokines = assay: Cytokines circulating in plasma after collagenase washing; format: in vivo, rat
Procedure: A new blood test was performed with the 10 rats in the 1st group. For each of them, blood was taken 15 days after surgery. Post-collagenase cytokines were analyzed.
A new blood test is performed on the 6 rats in the 2nd group on 26/07/2018 and on the 4 controls.
Post-collagenase cytokines are analyzed

[5] = test system: tissue originating from patients with peritoneal carcinomatosis; assay: In vitro collagenase treatment of patient tumor tissue fragments; format: cell-based, human; details: for cells released from tissues: culture at 96 hours
Procedure: After obtaining authorization from the Committee for Research with Medicinal Products (PIC 75/2016_FJD) of Fundación Jiménez Díaz, the tissue originating from patients with peritoneal carcinomatosis who signed the consent was collected. Tissue fragments were included in multiwell plates and treated with 35 U/mL of collagenase for 30 minutes or for a period of 24 hrs, the cultures were then washed and cells obtained from the enzyme treatment were analyzed. The idea was to check at different times if mesothelial cells were obtained alone or tumor cells were obtained as well. FIG. 1.

[6] = test system: peritoneal carcinomatosis (DHD cells); assay: Survival and necropsy of rats with carcinomatosis after peritoneal washing (groups D, E, F); format: in vivo, rat; details: group F, collagenase 37 U/ml, 3 animals
Procedure: as §1
Each group initially consisted of 6 rats (2×3).

MMP-1 = assay: ELISA for collagenase residues in blood, anti-MMP-1; format: in vivo, rat; details: after treatment and the follow-up period, all animals
Procedure: as §1

Collagenase
survival [1]: 4 out of 5 | macroscopic and histological findings [2]: No organ or tissue impairment is observed histologically; also recorded: elimination of the mesothelial cells covering the intestine and omentum is observed but without the involvement of any organ; also recorded: thinning of the mesothelial layer covering the intestinal tract without the involvement of intermediate or internal layers | release of adhesions (final conclusion) (peritoneal tissues; 37 mg/Kg for 20 minutes at 37° C. as a peritoneal washing, murine model): favors the release of adhesions | other relevant finding upon application of the treatment (peritoneal tissues; 0.05% in PBS, 20 min, 20 ml, 37° C.): pancreatic reaction | safety of intraperitoneal application (peritoneal tissues; 0.05%, vigorous washing at 37° C. for 20 minutes, murine model): safe for intraperitoneal application in a murine model, without associated mortality | analysis of the models at euthanasia, drug vs PBS (peritoneal tissues; 2 months after the use of drug or PBS): did not show any significant differences; also recorded: fewer adhesions did subjectively appear | histological study of tissues (peritoneal tissues; animals with small or large meshes, peritoneal washing with collagenase): are not affected | amylase (peritoneal tissues; both study groups): increases in both study groups | biochemical or hematologic parameters (peritoneal tissues; serial tests, immediately and at different points of control after the intervention): without finding significant differences with the control groups | adhesion tear pressure [3]: 188.26 millibar | Macroscopic observations ([4]; animal ID 1, 35 U/ml, PCI 13): All rather hematic. Implants | Macroscopic observations ([4]; animal ID 2, 8.75 U/ml, PCI 10, pump not used): Pump is not used. Implants do | Macroscopic observations ([4]; animal ID 3, 35 U/ml, PCI 2): Mesoderm readily separates. | Macroscopic observations ([4]; animal ID 5, 87.5 U/ml, PCI 10): All hematic. Omentum, | follow-up of the only animal left alive after treatment ([4]; rat, in vivo): showed no impairments or pain | Mutated KRAS event no. (mutated KRAS oncogene; group A (healthy rats, collagenase 37 U/mL)): 0 | Mutated KRAS event no. (mutated KRAS oncogene; group F (DHD + collagenase 37 U/mL)): 1 | IL4 in plasma vs PBS (cytokines and chemokines; anti-inflammatory cytokine): Insignificant increase | IL10 in plasma vs PBS (cytokines and chemokines; anti-inflammatory cytokine): Insignificant increase | levels of all the cytokines and chemokines between the 2 groups (cytokines and chemokines; at four months): normalized | G-CSF in plasma vs PBS (cytokines and chemokines; chemokines): no difference | GM-CSF in plasma vs PBS (cytokines and chemokines; chemokines): no difference | KC in plasma vs PBS (cytokines and chemokines; chemokines): no difference | M-MCF in plasma vs PBS (cytokines and chemokines; chemokines): no difference | MCP1 in plasma vs PBS (cytokines and chemokines; chemokines): significant increase | MIP3a in plasma vs PBS (cytokines and chemokines; chemokines): no difference | MIPla in plasma vs PBS (cytokines and chemokines; chemokines): no difference | RANTRES in plasma vs PBS (cytokines and chemokines; chemokines): no difference | VEGF in plasma vs PBS (cytokines and chemokines; chemokines): significant increase | IL12-p70 in plasma vs PBS (cytokines and chemokines; pro-inflammatory cytokine): Significant increase (p<0.01) | INF-gamma in plasma vs PBS (cytokines and chemokines; pro-inflammatory cytokine): no differences | TNF-alpha in plasma vs PBS (cytokines and chemokines; pro-inflammatory cytokine): Significant increase (p<0.01) | IL1a in plasma vs PBS (cytokines and chemokines; regulatory cytokine): no difference | IL1b in plasma vs PBS (cytokines and chemokines; regulatory cytokine): no difference | IL2 in plasma vs PBS (cytokines and chemokines; regulatory cytokine): significant increase (p<0.05) | IL5 in plasma vs PBS (cytokines and chemokines; regulatory cytokine): no difference | IL6 in plasma vs PBS (cytokines and chemokines; regulatory cytokine): no difference | IL7 in plasma vs PBS (cytokines and chemokines; regulatory cytokine): no difference | IL13 in plasma vs PBS (cytokines and chemokines; regulatory cytokine): no difference | IL17a in plasma vs PBS (cytokines and chemokines; regulatory cytokine): no difference | IL18 in plasma vs PBS (cytokines and chemokines; regulatory cytokine): significant increase (p<0.05) | effect of collagenase on tumor tissues in vitro ([5]; 35 U/mL): breaks the edges of the tissues, releasing mesothelial cells and limiting tumor vascularization | enzyme time beyond which tissues become damaged and viability of extracted cells is inhibited ([5]; in vitro): exceeding 45 minutes | cells released from tissues ([5]; tissues digested for 30 minutes): mesothelial cells released by collagenase | cells released from tissues ([5]; tissues digested for 24 hours): release of cells with tumor morphology and highly refringent mesothelial cells | Observations (necropsy) ([6]; 1 month): Localized carcinomatoses in intestine; also recorded: No adhesions | Observations (necropsy) ([6]; 2 months): Localized carcinomatoses in abdomen; also recorded: with nodules in liver. No adhesions | collagenase residues in blood, MMP-1 ELISA (MMP-1): negative
